Consider 17 compounds from article PMC6222691, “Isoxazolidine Conjugates of N3-Substituted 6-Bromoquinazolinones—Synthesis, Anti-Varizella-Zoster Virus, and Anti-Cytomegalovirus Activity” (Molecules : A Journal of Synthetic Chemistry and Natural …, 2018).

Molecules are shown by their SMILES. Converted amounts (≈) assume the structure as drawn. Read-outs that look alike come from different tables or passages of the source.

The subject of series [1] is immortalized human dermal microvascular endothelial cells (HMEC-1). Briefly: Inhibition of proliferation of HMEC-1 cells. In kind it is cell-based. The settings on record: HMEC-1, read-out: IC50 HMEC-1.
For another series, the system named is HEL cells. The settings on record: minimum cytotoxic concentration.
The subject of a further series is human T-lymphocyte (CEM). Briefly: Inhibition of proliferation of human T-lymphocyte CEM cells. Type of series: cell-based. The settings on record: 72 h, read-out: IC50 CEM.
The subject of the next series is TK+ VZV Strain (OKA). Briefly: microbe, parasite or virus in culture. The settings on record: Human alphaherpesvirus 3, HEL, read-out: Antiviral Activity EC50 TK+ VZV Strain (OKA). Type of series: cell-based, varicella-zoster virus.
Series [2] concerns a wide variety of DNA and RNA viruses. Briefly: Antiviral screening against a wide variety of DNA and RNA viruses. Type of series: cell-based.
Series [3] has as its system human cytomegalovirus AD-169 Strain. Briefly: Antiviral activity against human cytomegalovirus AD-169 strain in HEL cell cultures. In kind it is cell-based.
For series [4], the system named is L1210, CEM, HeLa, HMEC-1 cell lines. Briefly: Cytostatic activity against the tested cell lines. In kind it is cell-based.
The subject of a further series is murine leukemia (L1210). Briefly: Inhibition of proliferation of murine leukemia L1210 cells. In kind it is cell-based. The settings on record: Mus musculus, L1210, 48 h, read-out: IC50 L1210.
The test system of the next series is TK− VZV Strain (07-1). Briefly: microbe, parasite or virus in culture. The settings on record: Human alphaherpesvirus 3, HEL, read-out: Antiviral Activity EC50 TK− VZV Strain (07-1). In kind it is cell-based, varicella-zoster virus.
Series [5] concerns human cervix carcinoma (HeLa). Briefly: Inhibition of proliferation of human cervix carcinoma HeLa cells. Type of series: cell-based. The settings on record: 96 h, read-out: IC50 HeLa.
The test system of series [6] is human cytomegalovirus Davis Strain. Briefly: Antiviral activity against human cytomegalovirus Davis strain in HEL cell cultures. Type of series: cell-based.
The test system of series [7] is herpes simplex virus 2 (HSV-2). On the set-up: method as in PMID 21969760. The settings on record: cited from earlier work.
The test system of the next series is vaccinia virus (VACV). The settings on record: cited from earlier work.
Series [8] relates to herpes simplex virus 1 (HSV-1). On the set-up: method as in PMID 21969760. The settings on record: cited from earlier work.
The test system of a further series is influenza A virus (H5N1). The settings on record: cited from earlier work.
For another series, the system named is PI4KIIIα. On the set-up: method as in PMID 23944386. The settings on record: cited from earlier work.
Series [9] has as its system human cytomegalovirus (HCMV). Briefly: Antiviral activity against HCMV, AD-169 and Davis strains (text summaries). The settings on record: Human betaherpesvirus 5, AD169; HEL cells; both AD-169 and Davis strains; read-out: EC50 against HCMV (range over AD-169 and Davis strains). Type of series: cell-based.
A short description of a further series: in vitro. The settings on record: human.
For the next series, the system named is vaccinia virus. The settings on record: E6SM cell cultures; cited from earlier work.
Series [10] deals with tobacco mosaic virus (TMV). On the set-up: method as in PMID 18259148. The settings on record: in vivo; cited from earlier work.
The mark [11] stands for this setting: Human betaherpesvirus 5, AD169, HEL; read-out: Antiviral Activity EC50 AD-169 Strain.
[12] abbreviates: Human betaherpesvirus 5, HEL; read-out: Antiviral Activity EC50 Davis Strain.

In general, IC50 refers to the concentration that inhibits the measured activity by half. In general, EC50 refers to the concentration at which the effect is half-maximal. Regarding `CCOP(=O)(OCC)[C@H]1C[C@H](c2nc3ccc(Br)cc3c(=O)[nH]2)ON1C` (relative stereo) [trans-11a, Diethyl trans-[5-(6-bromo-4-oxo-3,4-dihydroquinazolin-2-yl)-2-methylisoxazolidin-3-yl]phosphonate], the IC50 in series [1] came out at 85 ± 13 µM; with human T-lymphocyte (CEM) it was 148 ± 2 µM; in the series with murine leukemia (L1210), 126 ± 19 µM; in series [5], 196 ± 20 µM. Moreover, the results for the “Cytotoxicity Cell Morphology MCC” value in the series on HEL cells (Table 2 (VZV experiments)) and with HEL cells (Table 3 (HCMV experiments)) were over 100 μM and 100 μM, respectively. The EC50 in the series on TK+ VZV Strain (OKA) is over 100 µM; in [3] (setting [11]), over 100 µM; in the series on TK− VZV Strain (07-1), 66.9 µM; in [6] (setting [12]), over 100 µM. Also, the “Activity against tested viruses (in words)” value (“Activity” below) in series [2] is listed as “not active”. Besides, the “Inhibition of proliferation of the tested cell lines (in words)” value (“Inhibition of proliferation … (in words)” for short) in [4] is reported as “did not inhibit proliferation”.
With `CCOP(=O)(OCC)[C@H]1C[C@@H](c2nc3ccc(Br)cc3c(=O)[nH]2)ON1C` (relative stereo) [cis-11a, Diethyl cis-[5-(6-bromo-4-oxo-3,4-dihydroquinazolin-2-yl)-2-methylisoxazolidin-3-yl]phosphonate], the half-maximal inhibitory concentration (IC50) in series [1] was 140 ± 54 µM; in the series on human T-lymphocyte (CEM) it was 242 ± 7 µM; in the series on murine leukemia (L1210), over 250 µM; in series [5], over 250 µM. Moreover, the “Cytotoxicity Cell Morphology MCC” value in the series with HEL cells (Table 2 (VZV experiments)) is over 100 μM; in the series with HEL cells (Table 3 (HCMV experiments)) it was 20 μM. Moreover, the EC50 in the series with TK+ VZV Strain (OKA) is over 100 µM; in series [3] (setting [11]) it was over 100 µM; in the series on TK− VZV Strain (07-1) it was over 100 µM; in series [6] (setting [12]), 100 µM. Moreover, the “Activity” value in series [2] is listed as “not active”. The “Inhibition of proliferation … (in words)” value in series [4] was “did not inhibit proliferation”.
As for `O=C(O)c1cc(Br)ccc1-n1c(-c2ccccc2)nc2ccc(Br)cc2c1=O` [compound 1, 5-bromo-2-(6-bromo-4-oxo-2-phenyl-4H-quinazolin-3-yl)-benzoic acid], in [7], the “EC50 HSV-2” value is 12 µg/mL (≈ 24 µM). In the series with vaccinia virus (VACV), the “EC50 vaccinia virus (VACV)” value was 12 µg/mL (≈ 24 µM). In series [8], the “EC50 HSV-1” value was 12 µg/mL (≈ 24 µM).
With `O=C(N/N=C/c1nc2ccc(I)cc2c(=O)n1-c1cccc(C(F)(F)F)c1)c1ccncc1` [compound 6], in the series on influenza A virus (H5N1), the “inhibition rate against H5N1” value was 25%.
Consider `COc1ncc(-c2ccc3nc(N)n(-c4ccccc4C(F)(F)F)c(=O)c3c2)cc1S(=O)(=O)Nc1ccc(F)cc1F` (atropisomer, axis not shown; (aS)) [(aS)-9], for which the “pIC50 PI4KIIIα” value in the series with PI4KIIIα was 8.3.
In the case of `CCOP(=O)(OCC)[C@H]1C[C@H](c2nc3ccc(Br)cc3c(=O)n2CC)ON1C` (relative stereo) [trans-11k, Diethyl trans-{5-[6-bromo-3-ethyl-4-oxo-3,4-dihydroquinazolin-2-yl]-2-methylisoxazolidin-3-yl}phosphonate], the “Cytotoxicity Cell Morphology MCC” value in the series with HEL cells (Table 2 (VZV experiments)) turned out to be 100 μM; with HEL cells (Table 3 (HCMV experiments)) it was 20 μM. Moreover, the EC50 in the series with TK+ VZV Strain (OKA) was over 20 µM; in series [3] (setting [11]), over 20 µM; with TK− VZV Strain (07-1) it was over 20 µM; in series [6] (setting [12]) it was 44.7 µM. Further, the “Activity” value in series [2] was “not active”. In [4], the “Inhibition of proliferation … (in words)” value is reported as “did not inhibit proliferation”.
Consider `Nc1ccn(C[C@@H](CO)OCP(=O)(O)O)c(=O)n1` [Cidofovir, reference compound], for which the EC50 is 1500 to 1700 nM in [9], 1.5 ± 0.2 µM in [3] (setting [11]) and 1.7 ± 0.4 µM in series [6] (setting [12]). Also, in the series on HEL cells (Table 3 (HCMV experiments)), the “Cytotoxicity Cell Morphology MCC” value is reported as over 300 μM. In the series “in vitro”, this compound yielded a CC50 of over 300 µM.
Turning to `CCc1nc(-n2c(-c3ccccc3)nc3ccc(Br)cc3c2=O)nc(N)c1-c1ccc(Cl)cc1` [compound 2], the MIC vaccinia virus with vaccinia virus is 1.92 µg/mL (≈ 3.6 µM).
On to `CCNC(=S)N/N=C/c1nc2ccc(I)cc2c(=O)n1-c1cccc(C(F)(F)F)c1` [compound 5], for which, in the series with influenza A virus (H5N1), the “inhibition rate against H5N1” value was 47%.
Take `CCOP(=O)(OCC)[C@H]1C[C@H](c2nc3ccc(Br)cc3c(=O)n2Cc2ccc([N+](=O)[O-])cc2)ON1C` (relative stereo) [trans-11e, Diethyl trans-{5-[6-bromo-3-(4-nitrobenzyl)-4-oxo-3,4-dihydroquinazolin-2-yl]-2-methylisoxazolidin-3-yl}phosphonate]: the 50% inhibitory concentration (IC50) in series [1] came out at 26 ± 6 µM; in the series with human T-lymphocyte (CEM), 17 ± 12 µM; in the series with murine leukemia (L1210), 18 µM; in series [5] it was 24 ± 9 µM. The “Cytotoxicity Cell Morphology MCC” value in the series on HEL cells (Table 2 (VZV experiments)) was determined as 20 μM; in the series with HEL cells (Table 3 (HCMV experiments)) it was 100 μM. For the same compound, the EC50 with TK+ VZV Strain (OKA) is 6.84 µM; in series [3] (setting [11]) it was over 20 µM; in the series on TK− VZV Strain (07-1) it was 7.51 µM; in series [6] (setting [12]) it was over 20 µM.
For the compound `CCOP(=O)(OCC)[C@H]1C[C@H](c2nc3ccc(Br)cc3c(=O)n2C)ON1C` (relative stereo) [trans-11j, Diethyl trans-{5-[6-bromo-3-methyl-4-oxo-3,4-dihydroquinazolin-2-yl]-2-methylisoxazolidin-3-yl}phosphonate], the IC50 in series [1] is over 250 µM; in the series on human T-lymphocyte (CEM), 128 ± 21 µM; with murine leukemia (L1210), 138 ± 19 µM; in [5], 175 ± 105 µM. In addition, the “Cytotoxicity Cell Morphology MCC” value with HEL cells (Table 2 (VZV experiments)) and in the series with HEL cells (Table 3 (HCMV experiments)) was 20 μM each time. The concentration giving a half-maximal response (EC50) in the series with TK+ VZV Strain (OKA) was over 4 µM; in series [3] (setting [11]) it was over 20 µM; in the series on TK− VZV Strain (07-1), over 4 µM; in series [6] (setting [12]), over 100 µM. Further, in [2], the “Activity” value is reported as “not active”. Moreover, the “Inhibition of proliferation … (in words)” value in series [4] was “did not inhibit proliferation”.
Turning to `O=c1[nH]c(=O)n([C@H]2C[C@H](O)[C@@H](CO)O2)cc1/C=C/Br` [Brivudin, reference compound], the “Cytotoxicity Cell Morphology MCC” value in the series with HEL cells (Table 2 (VZV experiments)) is listed as over 300 μM. The results for the 50% effective concentration (EC50) with TK+ VZV Strain (OKA) and in the series with TK− VZV Strain (07-1) were 0.023 ± 0.008 µM and 31.9 ± 16.1 µM, respectively. Further, the CC50 in “in vitro” was over 300 µM.
For `Nc1nc(O)c2ncn(COC(CO)CO)c2n1` [Ganciclovir, reference compound], in the series on HEL cells (Table 3 (HCMV experiments)), the “Cytotoxicity Cell Morphology MCC” value was over 350 μM. For the same compound, the 50% effective concentration (EC50) in series [3] (Human betaherpesvirus 5, AD169, HEL, read-out: Antiviral Activity EC50 AD-169 Strain) was 16.9 ± 6.9 µM; in series [6] (Human betaherpesvirus 5, HEL, read-out: Antiviral Activity EC50 Davis Strain), 7.7 ± 0.9 µM. This compound yielded a CC50 in the series “in vitro” of over 350 µM.
For the compound `O=c1[nH]cc(F)c(=O)[nH]1` [5-Fluorouracil, reference compound], the concentration for half-maximal inhibition (IC50) with human T-lymphocyte (CEM) (cell proliferation, three days) is 18 ± 5 µM; in the series on murine leukemia (L1210) (cell proliferation, two days) it was 0.33 ± 0.17 µM; in [5] (cell proliferation, four days), 0.54 ± 0.12 µM.
For the compound `Cc1ccc(C(=O)/C=C/c2nc3ccc(I)cc3c(=O)n2-c2cccc(C(F)(F)F)c2)cc1` [compound 4], in the series with influenza A virus (H5N1), the “inhibition rate against H5N1” value is given as 38%.
Consider `Nc1nc2c(ncn2COCCO)c(=O)[nH]1` [Acyclovir], for which the CC50 in the series “in vitro” was over 350 µM.
For `Cc1nc2ccc(Br)cc2c(=O)n1/N=C/c1ccccc1C(F)(F)F` [compound 3, 2-methyl-3-(substituted-benzalamino)-4(3H)-quinazolinone], the “curative effects against TMV” value in series [10] was 54%.
